Source: ChEMBL document CHEMBL5058646 (2022)

Columns and labels:
[1] = biological target: Alpha-1B adrenergic receptor (Homo sapiens) (UniProt P35368); conditions: Compound concentration 10.0 uM
[2] = biological target: T1, Zinc finger and BTB domain-containing protein 10 (Homo sapiens) (UniProt Q96DT7); conditions: SUD4, Compound concentration 1.0 uM
T1 sequence (whole entry): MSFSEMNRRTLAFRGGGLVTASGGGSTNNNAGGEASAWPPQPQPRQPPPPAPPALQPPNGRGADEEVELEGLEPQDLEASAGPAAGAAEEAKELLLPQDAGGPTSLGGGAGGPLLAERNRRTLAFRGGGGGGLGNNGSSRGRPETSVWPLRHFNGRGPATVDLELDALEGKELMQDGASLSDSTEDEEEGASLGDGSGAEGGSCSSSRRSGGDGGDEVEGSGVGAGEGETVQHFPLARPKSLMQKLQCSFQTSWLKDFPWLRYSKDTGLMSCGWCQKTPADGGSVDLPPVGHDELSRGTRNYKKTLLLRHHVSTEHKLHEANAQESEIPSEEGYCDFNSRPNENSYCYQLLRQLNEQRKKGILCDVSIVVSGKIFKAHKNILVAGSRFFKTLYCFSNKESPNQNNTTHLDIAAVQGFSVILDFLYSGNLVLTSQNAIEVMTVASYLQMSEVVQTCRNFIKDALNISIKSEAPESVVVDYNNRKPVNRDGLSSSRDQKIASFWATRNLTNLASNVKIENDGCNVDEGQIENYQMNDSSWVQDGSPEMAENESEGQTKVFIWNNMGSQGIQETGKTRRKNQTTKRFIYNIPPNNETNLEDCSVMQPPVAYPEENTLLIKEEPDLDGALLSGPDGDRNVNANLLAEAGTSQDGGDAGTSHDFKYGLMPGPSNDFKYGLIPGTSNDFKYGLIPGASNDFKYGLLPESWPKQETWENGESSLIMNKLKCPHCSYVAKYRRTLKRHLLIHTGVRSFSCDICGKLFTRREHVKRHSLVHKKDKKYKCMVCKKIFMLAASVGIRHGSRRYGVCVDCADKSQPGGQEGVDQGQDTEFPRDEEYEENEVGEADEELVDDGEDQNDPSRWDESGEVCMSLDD

[3] = biological target: Zinc finger and BTB domain-containing protein 14 (Homo sapiens) (UniProt O43829); conditions: SUD4, Compound concentration 1.0 uM
Chain of Zinc finger and BTB domain-containing protein 14 (Homo sapiens) (O43829 whole entry, the tested form may be a part): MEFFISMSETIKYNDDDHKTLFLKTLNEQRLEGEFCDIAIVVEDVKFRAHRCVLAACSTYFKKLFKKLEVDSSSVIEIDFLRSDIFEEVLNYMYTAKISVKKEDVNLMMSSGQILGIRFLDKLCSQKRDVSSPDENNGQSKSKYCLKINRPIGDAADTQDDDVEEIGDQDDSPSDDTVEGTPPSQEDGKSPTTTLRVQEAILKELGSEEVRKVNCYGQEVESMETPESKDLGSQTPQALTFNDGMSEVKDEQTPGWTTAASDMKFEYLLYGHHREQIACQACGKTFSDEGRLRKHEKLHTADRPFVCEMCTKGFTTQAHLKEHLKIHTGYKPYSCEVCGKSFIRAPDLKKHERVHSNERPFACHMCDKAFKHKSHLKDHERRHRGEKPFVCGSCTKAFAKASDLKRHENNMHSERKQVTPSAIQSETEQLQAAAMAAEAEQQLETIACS

[4] = biological target: T2, Zinc finger and BTB domain-containing protein 40 (Homo sapiens) (UniProt Q9NUA8); conditions: OCI-Ly1, Compound concentration 1.0 uM
T2 sequence (whole entry): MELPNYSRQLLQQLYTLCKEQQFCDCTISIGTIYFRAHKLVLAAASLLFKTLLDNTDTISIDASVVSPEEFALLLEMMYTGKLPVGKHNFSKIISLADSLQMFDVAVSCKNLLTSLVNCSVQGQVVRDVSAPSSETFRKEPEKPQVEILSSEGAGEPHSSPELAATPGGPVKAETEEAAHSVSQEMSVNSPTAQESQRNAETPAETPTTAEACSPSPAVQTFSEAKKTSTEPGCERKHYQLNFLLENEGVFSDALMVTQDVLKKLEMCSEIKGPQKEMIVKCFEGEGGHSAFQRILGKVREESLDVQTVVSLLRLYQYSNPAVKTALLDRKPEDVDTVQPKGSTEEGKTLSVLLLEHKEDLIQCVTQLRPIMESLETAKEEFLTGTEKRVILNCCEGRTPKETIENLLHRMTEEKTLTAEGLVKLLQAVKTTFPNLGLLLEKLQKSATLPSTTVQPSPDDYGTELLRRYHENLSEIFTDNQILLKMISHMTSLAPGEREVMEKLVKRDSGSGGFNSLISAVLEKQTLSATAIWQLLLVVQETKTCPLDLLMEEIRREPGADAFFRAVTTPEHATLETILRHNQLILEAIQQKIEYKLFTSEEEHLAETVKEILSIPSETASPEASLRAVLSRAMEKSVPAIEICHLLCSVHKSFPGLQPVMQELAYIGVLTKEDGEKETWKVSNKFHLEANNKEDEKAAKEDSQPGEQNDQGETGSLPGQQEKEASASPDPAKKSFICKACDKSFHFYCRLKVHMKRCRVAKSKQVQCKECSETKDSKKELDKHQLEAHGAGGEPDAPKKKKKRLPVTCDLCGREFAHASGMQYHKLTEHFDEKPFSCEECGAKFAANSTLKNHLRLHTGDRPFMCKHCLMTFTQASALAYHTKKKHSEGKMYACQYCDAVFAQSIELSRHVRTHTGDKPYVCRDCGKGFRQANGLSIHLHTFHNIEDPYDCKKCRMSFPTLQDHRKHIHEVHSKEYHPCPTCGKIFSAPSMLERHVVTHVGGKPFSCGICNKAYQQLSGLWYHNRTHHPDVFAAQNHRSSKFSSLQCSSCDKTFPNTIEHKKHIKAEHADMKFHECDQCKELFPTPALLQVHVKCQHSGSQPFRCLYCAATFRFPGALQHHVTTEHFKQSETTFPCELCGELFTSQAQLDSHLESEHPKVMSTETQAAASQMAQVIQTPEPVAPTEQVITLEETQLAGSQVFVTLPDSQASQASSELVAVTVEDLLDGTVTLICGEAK

[5] = biological target: AP2-associated protein kinase 1 (Homo sapiens) (UniProt Q2M2I8); assay: AAK1 SGC Tm panel (DSF); conditions: Compound concentration 20.0 uM
Chain of AP2-associated protein kinase 1 (Homo sapiens) (Q2M2I8 whole entry, looked up, the tested form may be a part): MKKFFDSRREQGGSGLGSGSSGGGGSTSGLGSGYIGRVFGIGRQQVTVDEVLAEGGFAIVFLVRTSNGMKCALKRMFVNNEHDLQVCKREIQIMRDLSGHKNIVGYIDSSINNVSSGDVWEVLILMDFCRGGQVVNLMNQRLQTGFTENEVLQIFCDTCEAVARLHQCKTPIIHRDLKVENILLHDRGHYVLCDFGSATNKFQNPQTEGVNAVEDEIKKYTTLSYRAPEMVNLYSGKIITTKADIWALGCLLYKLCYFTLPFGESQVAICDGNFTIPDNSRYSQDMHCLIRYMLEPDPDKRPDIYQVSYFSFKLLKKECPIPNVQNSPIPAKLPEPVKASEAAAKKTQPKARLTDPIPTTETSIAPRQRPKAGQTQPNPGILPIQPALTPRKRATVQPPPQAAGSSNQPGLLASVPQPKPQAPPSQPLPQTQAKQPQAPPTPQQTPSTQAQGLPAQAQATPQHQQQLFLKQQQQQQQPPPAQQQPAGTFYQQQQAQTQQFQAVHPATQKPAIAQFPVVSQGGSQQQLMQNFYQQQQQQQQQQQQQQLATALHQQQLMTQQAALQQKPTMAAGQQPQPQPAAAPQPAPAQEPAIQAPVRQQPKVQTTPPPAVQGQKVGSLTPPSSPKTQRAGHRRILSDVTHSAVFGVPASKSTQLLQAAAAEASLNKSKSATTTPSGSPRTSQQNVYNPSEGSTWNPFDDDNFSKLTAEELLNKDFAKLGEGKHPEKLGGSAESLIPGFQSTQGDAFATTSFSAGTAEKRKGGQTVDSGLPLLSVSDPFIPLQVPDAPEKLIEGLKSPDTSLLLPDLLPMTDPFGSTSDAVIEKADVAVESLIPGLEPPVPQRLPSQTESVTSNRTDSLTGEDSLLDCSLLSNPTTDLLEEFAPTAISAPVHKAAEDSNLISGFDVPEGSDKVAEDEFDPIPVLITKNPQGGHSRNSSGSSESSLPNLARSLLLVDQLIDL

[6] = biological target: T3, Zinc finger and BTB domain-containing protein 2 (Homo sapiens) (UniProt Q8N680); conditions: SUD4, Compound concentration 1.0 uM
T3 sequence (whole entry): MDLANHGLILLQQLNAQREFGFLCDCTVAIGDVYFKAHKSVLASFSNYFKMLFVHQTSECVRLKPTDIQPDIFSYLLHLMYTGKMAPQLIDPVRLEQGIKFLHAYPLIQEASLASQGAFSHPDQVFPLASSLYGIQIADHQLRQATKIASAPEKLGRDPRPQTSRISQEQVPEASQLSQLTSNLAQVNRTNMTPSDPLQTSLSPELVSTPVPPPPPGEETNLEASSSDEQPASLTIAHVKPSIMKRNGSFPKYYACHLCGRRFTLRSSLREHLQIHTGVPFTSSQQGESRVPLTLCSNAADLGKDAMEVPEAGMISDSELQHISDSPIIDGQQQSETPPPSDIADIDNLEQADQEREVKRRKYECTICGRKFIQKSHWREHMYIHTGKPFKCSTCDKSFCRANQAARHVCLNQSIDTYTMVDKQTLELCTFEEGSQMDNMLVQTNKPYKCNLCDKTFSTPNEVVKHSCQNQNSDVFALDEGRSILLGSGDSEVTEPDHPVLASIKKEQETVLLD

[7] = biological target: Serine/threonine-protein kinase 10 (Homo sapiens) (UniProt O94804); assay: STK10 SGC Tm panel (DSF); conditions: Compound concentration 20.0 uM
Chain of Serine/threonine-protein kinase 10 (Homo sapiens) (O94804 whole entry, looked up): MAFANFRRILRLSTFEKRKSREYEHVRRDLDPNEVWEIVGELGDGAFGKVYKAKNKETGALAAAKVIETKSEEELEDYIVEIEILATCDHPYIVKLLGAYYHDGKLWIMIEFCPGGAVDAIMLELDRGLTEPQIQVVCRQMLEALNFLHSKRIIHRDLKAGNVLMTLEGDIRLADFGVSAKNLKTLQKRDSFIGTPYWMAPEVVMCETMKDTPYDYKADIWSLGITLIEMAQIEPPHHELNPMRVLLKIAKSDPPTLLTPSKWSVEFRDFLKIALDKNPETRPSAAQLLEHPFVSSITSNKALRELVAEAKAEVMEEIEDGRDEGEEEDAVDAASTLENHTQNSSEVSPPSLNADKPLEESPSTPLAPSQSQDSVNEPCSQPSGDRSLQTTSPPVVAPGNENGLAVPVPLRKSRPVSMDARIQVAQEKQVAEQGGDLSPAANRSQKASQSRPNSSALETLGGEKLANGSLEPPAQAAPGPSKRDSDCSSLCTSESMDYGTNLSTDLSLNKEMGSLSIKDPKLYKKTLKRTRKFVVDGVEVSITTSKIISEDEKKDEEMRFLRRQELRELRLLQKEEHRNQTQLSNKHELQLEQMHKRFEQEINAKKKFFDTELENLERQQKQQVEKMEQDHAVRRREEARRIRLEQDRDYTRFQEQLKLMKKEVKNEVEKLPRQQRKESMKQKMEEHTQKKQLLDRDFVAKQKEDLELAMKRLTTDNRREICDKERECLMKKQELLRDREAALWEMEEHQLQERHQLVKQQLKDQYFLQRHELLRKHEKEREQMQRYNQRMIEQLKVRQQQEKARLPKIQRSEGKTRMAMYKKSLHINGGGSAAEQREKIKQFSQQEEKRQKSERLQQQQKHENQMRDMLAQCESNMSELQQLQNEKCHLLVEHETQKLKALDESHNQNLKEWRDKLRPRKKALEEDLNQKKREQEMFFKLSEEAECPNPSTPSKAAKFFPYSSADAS

[8] = biological target: Dual specificity mitogen-activated protein kinase kinase 1 (Homo sapiens) (UniProt Q02750); assay: MAP2K1 SGC Tm panel (DSF); conditions: Compound concentration 20.0 uM
Chain of Dual specificity mitogen-activated protein kinase kinase 1 (Homo sapiens) (Q02750 whole entry): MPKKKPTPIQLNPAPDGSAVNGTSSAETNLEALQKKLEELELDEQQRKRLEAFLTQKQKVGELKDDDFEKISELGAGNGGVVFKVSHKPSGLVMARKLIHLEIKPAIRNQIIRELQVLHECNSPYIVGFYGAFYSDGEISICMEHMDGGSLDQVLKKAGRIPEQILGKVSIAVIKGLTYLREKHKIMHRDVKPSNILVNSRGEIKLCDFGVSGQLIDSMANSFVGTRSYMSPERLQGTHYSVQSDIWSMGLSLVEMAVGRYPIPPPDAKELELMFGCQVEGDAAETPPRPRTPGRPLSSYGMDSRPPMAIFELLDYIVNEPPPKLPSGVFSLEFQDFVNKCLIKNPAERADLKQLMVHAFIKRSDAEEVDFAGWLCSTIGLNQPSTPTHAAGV

[9] = biological target: Alpha-2C adrenergic receptor (Homo sapiens) (UniProt P18825); conditions: Compound concentration 10.0 uM
Chain of Alpha-2C adrenergic receptor (Homo sapiens) (P18825 whole entry): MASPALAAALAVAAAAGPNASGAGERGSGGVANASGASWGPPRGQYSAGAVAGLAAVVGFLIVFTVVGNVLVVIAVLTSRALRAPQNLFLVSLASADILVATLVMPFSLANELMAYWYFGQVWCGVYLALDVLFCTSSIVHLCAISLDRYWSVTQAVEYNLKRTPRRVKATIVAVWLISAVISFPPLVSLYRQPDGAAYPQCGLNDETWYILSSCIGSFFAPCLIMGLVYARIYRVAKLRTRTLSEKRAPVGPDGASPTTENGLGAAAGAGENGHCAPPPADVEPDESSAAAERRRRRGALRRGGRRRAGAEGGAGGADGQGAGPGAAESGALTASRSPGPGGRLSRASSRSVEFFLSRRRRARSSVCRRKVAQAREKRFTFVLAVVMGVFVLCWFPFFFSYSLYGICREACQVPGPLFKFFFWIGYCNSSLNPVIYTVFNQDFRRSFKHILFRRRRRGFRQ

Chain of Alpha-1B adrenergic receptor (Homo sapiens) (P35368 whole entry, the tested form may be a part): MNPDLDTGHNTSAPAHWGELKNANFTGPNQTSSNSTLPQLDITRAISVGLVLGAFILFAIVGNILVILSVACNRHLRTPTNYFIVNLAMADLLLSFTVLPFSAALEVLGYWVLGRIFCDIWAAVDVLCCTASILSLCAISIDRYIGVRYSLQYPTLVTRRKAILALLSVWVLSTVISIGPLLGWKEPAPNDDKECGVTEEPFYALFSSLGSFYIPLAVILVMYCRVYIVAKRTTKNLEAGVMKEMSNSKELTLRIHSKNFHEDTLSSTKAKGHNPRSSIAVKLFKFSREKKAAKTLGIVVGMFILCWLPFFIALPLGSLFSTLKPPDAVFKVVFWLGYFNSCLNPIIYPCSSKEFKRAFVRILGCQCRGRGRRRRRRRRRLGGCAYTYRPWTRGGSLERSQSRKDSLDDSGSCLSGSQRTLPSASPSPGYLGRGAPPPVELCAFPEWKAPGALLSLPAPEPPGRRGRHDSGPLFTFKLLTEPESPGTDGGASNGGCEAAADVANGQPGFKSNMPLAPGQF

C[C@@H]1CN(c2ncc(Cl)c(Nc3ccc4c(c3)n(CCC(C)(C)O)c(=O)n4C)n2)C[C@H](C)C1(F)F
inactive: inhibition [1] 12.4% | LogFC [2] 0.121 | LogFC [3] 0.0306 | LogFC [4] -0.194 | Tm [5] 47 °C | LogFC [6] 0.153 | Tm [7] 42 °C | Tm [8] 45 °C | inhibition [9] 15.1%
